Data from BindingDB's records for patent US20250313563 (The Broad Institute, 2025).
pIC50: −log10 of the molar value. “And” between values parts separate entries of the source, which are not always exact repeats. Equal values may be shown once.

Tests used:
[1] = molecular target: Glycogen synthase kinase-3 alpha (Homo sapiens, UniProt P49840); assay: TR-FRET Assay
Method in brief: (§1)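 Enzyme and test compound were first incubated together for 30 minutes in assay buffer. The kinase reaction followed and was stopped with EDTA. The pSer641 signal was read by time-resolved FRET.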

[2] = molecular target: Glycogen synthase kinase-3 beta (Homo sapiens, UniProt P49841); assay: TR-FRET Assay
Method in brief: as §1

Glycogen synthase kinase-3 beta, sequence (P49841 whole entry): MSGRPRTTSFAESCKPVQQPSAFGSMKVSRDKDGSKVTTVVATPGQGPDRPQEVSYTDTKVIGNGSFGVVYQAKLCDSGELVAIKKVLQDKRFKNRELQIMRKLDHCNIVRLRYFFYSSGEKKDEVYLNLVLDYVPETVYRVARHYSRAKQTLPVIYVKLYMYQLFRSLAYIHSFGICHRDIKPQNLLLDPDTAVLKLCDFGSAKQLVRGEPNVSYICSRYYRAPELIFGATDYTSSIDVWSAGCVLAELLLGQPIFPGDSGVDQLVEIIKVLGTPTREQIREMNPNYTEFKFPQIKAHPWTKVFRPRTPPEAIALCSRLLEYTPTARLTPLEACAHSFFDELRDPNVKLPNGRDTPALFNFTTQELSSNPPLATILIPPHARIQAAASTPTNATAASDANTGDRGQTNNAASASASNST
Glycogen synthase kinase-3 alpha, sequence (P49840 whole entry): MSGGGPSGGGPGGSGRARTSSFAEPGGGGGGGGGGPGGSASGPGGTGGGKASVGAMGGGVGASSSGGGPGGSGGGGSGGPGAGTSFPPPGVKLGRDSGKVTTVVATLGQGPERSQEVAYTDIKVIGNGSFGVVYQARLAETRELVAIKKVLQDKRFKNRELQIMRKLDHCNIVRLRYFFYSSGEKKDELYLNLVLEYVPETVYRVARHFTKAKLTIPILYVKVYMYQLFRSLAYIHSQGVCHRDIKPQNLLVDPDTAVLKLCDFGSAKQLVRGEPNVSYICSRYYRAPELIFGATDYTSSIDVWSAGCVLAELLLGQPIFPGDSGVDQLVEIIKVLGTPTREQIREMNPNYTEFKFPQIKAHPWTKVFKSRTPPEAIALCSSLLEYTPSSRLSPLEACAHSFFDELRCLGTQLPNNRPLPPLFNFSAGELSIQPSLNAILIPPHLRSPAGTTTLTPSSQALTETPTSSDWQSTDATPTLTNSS

Structure (SMILES)	pIC50 [1]	pIC50 [2]
CC1(C)CC(=O)C2=C(C1)NC1=C(CN=N1)[C@]21CCN(S(=O)(=O)CC2CC2)C1 [US20250313563, Compound 943481]	> 7.00 and 6.00 to 7.00	> 7.00 and 6.00 to 7.00
CC[C@]1(c2cccc(C(F)F)c2)C2=C(CC(C)(C)NC2=O)NC2N=NC(C(F)(F)F)=C21 (some centres not stated) [US20250313563, Compound 951946]	6.00 to 7.00	5.30 to 6.00
CCC1(c2cccc(CS(C)(=O)=O)c2)C2=CN=NC2NC2=C1C(=O)CC(C)(C)C2 (configuration not stated) [US20250313563, Compound 945601]	6.00 to 7.00	6.00 to 7.00
CC[C@@]1(c2cccc(-c3cnn(C)c3)c2)C2=C(CC(C)(C)CC2=O)NC2N=NC(C(F)(F)F)=C21 (some centres not stated) [US20250313563, Compound 811567]	6.00 to 7.00	6.00 to 7.00
CC[C@@]1(c2cccc(-c3cn(C)nc3C)c2)C2=CN=NC2NC2=C1C(=O)NC(C)(C)C2 (some centres not stated) [US20250313563, Compound 945470]	> 7.00 and 6.00 to 7.00	> 7.00 and 5.30 to 6.00
CC[C@@]1(c2cccc(C(F)(F)F)c2)C2=C(N=NC2)NC2=C1C(=O)N(Cc1ccccc1)[C@@H]2C [US20250313563, Compound 930332]	5.30 to 6.00	< 5.30
CCC1(c2cccc(N(C)c3cnccn3)c2)C2=CN=NC2NC2=C1C(=O)CC(C)(C)C2 (configuration not stated) [US20250313563, Compound 902971]	> 7.00	> 7.00
CCC1(c2cccc(N3CCCC3)c2)C2=CN=NC2NC2=C1C(=O)NC(C)(C)C2 (configuration not stated) [US20250313563, Compound 945723]	6.00 to 7.00	5.30 to 6.00
CC[C@]1(c2cccc(C3CCOCC3)c2)C2=CN=NC2NC2=C1C(=O)CC(C)(C)C2 (some centres not stated) [US20250313563, Compound 819638]	6.00 to 7.00	6.00 to 7.00
CC[C@@]1(c2cccc(-c3cnn(C4CC4(F)F)c3)c2)C2=CN=NC2NC2=C1C(=O)NC(C)(C)C2 (some centres not stated) [US20250313563, Compound 950060]	> 7.00	6.00 to 7.00
CC[C@]1(c2cccc(OC)c2)C2=C(CC(C)(C)CC2=O)NC2N=NC(C(F)(F)F)=C21 (some centres not stated) [US20250313563, Compound 884118]	6.00 to 7.00	5.30 to 6.00
CC[C@]1(c2cccc(C(F)(F)F)c2)C2=CN=NC2NC2=C1C(=O)N(c1cnc(OC)nc1)[C@@H](C)C2 (some centres not stated) [US20250313563, Compound 949352]	6.00 to 7.00	5.30 to 6.00
CC1(C)CC(=O)C2=C(C1)NC1=C(CN=N1)C21CCC2(CCC(=O)N2C(=O)OC(C)(C)C)CC1 (configuration not stated) [US20250313563, Compound 912217]	5.30 to 6.00	< 5.30

Continued, values first:

pIC50 [1]	pIC50 [2]	Structure (SMILES)
> 7.00	> 7.00	CCC1(c2cccc(S(C)(=O)=O)c2)C2=C(CC(C)(C)NC2=O)NC2N=NC(C)=C21 (configuration not stated) [US20250313563, Compound 947395B:]
> 7.00	6.00 to 7.00	CC[C@@H]1CCN1c1cccc([C@@]2(CC)C3=CN=NC3NC3=C2C(=O)CC(C)(C)C3)c1 (some centres not stated) [US20250313563, Compound 911970]
> 7.00	6.00 to 7.00	CC1(C)CC(=O)C2=C(C1)NC1=C(CN=N1)C2(C)c1cccc(-c2ccncc2)c1 (configuration not stated) [US20250313563, Compound 790730]
> 7.00	6.00 to 7.00	CCC1(c2cccc(-c3ccnc(C)c3OC)c2)C2=CN=NC2NC2=C1C(=O)NC(C)(C)C2 (configuration not stated) [US20250313563, Compound 948794]
> 7.00	> 7.00	CCC1(c2cccc(-c3cncn3C)c2)C2=CN=NC2NC2=C1C(=O)CC(C)(C)C2 (configuration not stated) [US20250313563, Compound 943533]
> 7.00	> 7.00 and 6.00 to 7.00	CCC1(c2cccc(-c3ccnc(C)c3C)c2)C2=C(CC(C)(C)CC2=O)NC2N=NC(C(F)(F)F)=C21 (configuration not stated) [US20250313563, Compound 945529]
> 7.00	6.00 to 7.00	CC1=C2C(N=N1)NC1=C(C(=O)CC(C)(C)C1)C21CCCCC1 (configuration not stated) [US20250313563, Compound 883865]
> 7.00	6.00 to 7.00	CCC1(c2cccc(-c3ccnc(C(F)(F)F)c3)c2)C2=CN=NC2NC2=C1C(=O)CC(C)(C)C2 (configuration not stated) [US20250313563, Compound 913348]
